≈ marks a conversion by molar mass, not a printed value.

In data set [1] the test system is Enterococcus faecalis ATCC 29213. Description: MIC, microtitration broth method, EF. Type of data set: cell-based. The conditions noted are these: ATCC29213, 24 h at 37 °C.
The test system of data set [2] is Mycobacterium smegmatis ATCC 700084. Kind of data set: MIC, broth dilution micro-method, MS. Format: cell-based. As to conditions: Mycolicibacterium smegmatis, ATCC700084, 72 h; 3 days at 37 °C.
Data set [3] concerns methicillin-resistant S. aureus 63718. Kind of data set: MBC, agar aliquot subculture method, MRSA3. Format: cell-based. As to conditions: Staphylococcus aureus. The protocol:
(§1) For the above-mentioned strains/isolates, the agar aliquot subculture method was used as a test for bactericidal agents. After the MIC value determination, the inoculum was transferred to CaMH (Oxoid) for staphylococci, BHI (Oxoid) for enterococci, and Middlebrook 7H9 (Difco) for mycobacteria medium using a multipoint inoculator. As indicated above, the plates were incubated on a thermostat at 37 °C for the appropriate time for each micro-organism. The lowest concentration of test compound at which ≤5 colonies were obtained was then evaluated as MBC, corresponding to a 99.9% decrease in CFU relative to the original inoculum.

In data set [4] the test system is SNB-19 (human glioblastoma). Description: WST-1 proliferation assay, SNB-19. As to conditions: Homo sapiens, SNB-19, 72 h exposure. Type of data set: cell-based.
The subject of data set [5] is human cancer cell lines (A549, SNB-19, and T-47D). Description: WST-1 proliferation assay, cancer cell line panel. Type of data set: cell-based. The conditions noted are these: SNB-19, A549, T47D, read-out: IC50 range over the tested cancer cell lines. The procedure: Compounds were evaluated for their antiproliferative activity using three cultured cell lines: A549 (human lung carcinoma, ATCC, Manassas, VA, USA), SNB-19 (human glioblastoma, DSMZ, German Collection of Microorganisms and Cell Cultures), T-47D (human breast cancer, ATCC, Manassas, VA, USA), and NHDF (normal human dermal fibroblasts, ATCC, Manassas, VA, USA). The cultured cells were kept at 37 °C and 5% CO2. The cells were seeded (1 × 10^4 cells/well/100 μL DMEM supplemented with 10% FCS, streptomycin, and penicillin) using 96-well plates (corning). Cells were counted in a hemocytometer (Burker chamber) using a phase contrast Olympus IX50 microscope equipped with a Sony SSC-DC58 AP camera and an Olympus DP10 digital camera.
The antiproliferative effect of the compounds exerted on cancer and normal cells was determined using the Cell Proliferation Reagent WST-1 assay (Roche Molecular Biochemicals, Mannheim, Germany). […] The formazan dye produced by metabolically active cells was quantified by absorbance readings at appropriate wavelengths. […] The absorbance of the samples was measured against a background control at 450 nm using a microplate reader with a reference wavelength at 600 nm. The obtained results are expressed as the means of at least two independent experiments performed in triplicate. […]

In data set [6] the test system is Mycobacterium marinum CAMP 5644. Description: MBC, agar aliquot subculture method, MM. Format: cell-based. As to conditions: CAMP5644. The essentials:
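Post-MIC inoculum subcultured to CaMH/BHI/7H9 (staph/enterococci/mycobacteria), 37 °C, organism-specific time; endpoint ≤5 colonies (99.9% CFU drop).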

In data set [7] the test system is Staphylococcus aureus ATCC 29213. Description: MIC, microtitration broth method, SA. Type of data set: cell-based. As to conditions: ATCC29213, 24 h at 37 °C.
For data set [8], the system named is methicillin-resistant S. aureus SA 630. Kind of data set: MBC, agar aliquot subculture method, MRSA2. Type of data set: cell-based. As to conditions: Staphylococcus aureus. The protocol:
as §1

The subject of data set [9] is vancomycin-resistant E. faecalis VRE 342B. Kind of data set: MIC, microtitration broth method, VRE1. Format: cell-based. As to conditions: Enterococcus faecalis, 24 h at 37 °C.
The subject of data set [10] is Mycobacterium marinum CAMP 5644. Kind of data set: MIC, broth dilution micro-method, MM. Type of data set: cell-based. The conditions noted are these: CAMP5644, 504 h, 21 days at 28 °C.
In data set [11] the test system is methicillin-resistant S. aureus 63718. Description: MIC, microtitration broth method, MRSA3. Format: cell-based. The conditions noted are these: Staphylococcus aureus; 24 h at 37 °C.
For data set [12], the system named is vancomycin-resistant E. faecalis VRE 368. Description: MIC, microtitration broth method, VRE2. As to conditions: Enterococcus faecalis, 24 h at 37 °C. Type of data set: cell-based.
Data set [13] concerns methicillin-resistant S. aureus SA 3202. Kind of data set: MIC, microtitration broth method, MRSA1. Format: cell-based. The conditions noted are these: Staphylococcus aureus; 24 h at 37 °C.
Data set [14] deals with T-47D (human breast cancer). Description: WST-1 proliferation assay, T47D. Type of data set: cell-based. As to conditions: Homo sapiens, T47D, 72 h exposure.
Data set [15] deals with vancomycin-resistant E. faecalis VRE 725B. Description: MIC, microtitration broth method, VRE3. Format: cell-based. As to conditions: Enterococcus faecalis, 24 h at 37 °C.
For data set [16], the system named is methicillin-resistant S. aureus SA 630. Kind of data set: MIC, microtitration broth method, MRSA2. Type of data set: cell-based. The conditions noted are these: Staphylococcus aureus; 24 h at 37 °C.
In data set [17] the test system is NHDF (normal human dermal fibroblasts). Kind of data set: WST-1 proliferation assay, NHDF. Type of data set: cell-based. As to conditions: Homo sapiens, NHDF, normal cells, 72 h exposure.
Data set [18] has as its system Staphylococcus aureus ATCC 29213. Description: MBC, agar aliquot subculture method, SA. Format: cell-based. As to conditions: ATCC29213. The protocol:
as §1

Data set [19] relates to A549 (human lung carcinoma). Kind of data set: WST-1 proliferation assay, A549. Type of data set: cell-based. The conditions noted are these: Homo sapiens, A549, 72 h exposure.
In data set [20] the test system is Mycobacterium smegmatis ATCC 700084. Kind of data set: MBC, agar aliquot subculture method, MS. Type of data set: cell-based. The conditions noted are these: Mycolicibacterium smegmatis, ATCC700084. The method in brief: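 Subcultures taken after the MIC read were plated with a multipoint inoculator onto medium matched to each organism: CaMH for staphylococci, BHI for enterococci, Middlebrook 7H9 for mycobacteria. Plates sat at 37 °C for the period suited to each species. The endpoint was ≤5 colonies, equal to 99.9% kill.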

For data set [21] the test system is unchanged. As to conditions: 3 days.
Data set [22] deals with vancomycin-resistant E. faecalis VRE 368. Kind of data set: MBC, agar aliquot subculture method, VRE2. Type of data set: cell-based. The conditions noted are these: Enterococcus faecalis. The procedure:
as §1

In data set [23] the test system is methicillin-resistant S. aureus SA 3202. Description: MBC, agar aliquot subculture method, MRSA1. Format: cell-based. As to conditions: Staphylococcus aureus. The protocol:
as §1

The test system of another data set is Enterococcus faecalis. Kind of data set: MBC, agar aliquot subculture method, EF. Format: cell-based. The conditions noted are these: ATCC29213. The procedure: as §1
Data set [24] has as its system methicillin-resistant S. aureus 63718. Also on record: method as in PMID 20386717. As to conditions: MRSA 63718, characterisation of the isolate; cited from earlier work.

For `C=CCn1cc(COc2ccc3c(c2)Sc2c[n+](C)c4ccccc4c2N3)nn1` [2a, 5-Methyl-9-(1-allyl-1H-1,2,3-triazol-4-yl)methoxy-12H-quino [3,4-b][1,4]benzothiazinium chloride], the MIC in data set [1] came to 262 µM; in data set [2], 32.7 µM; in [7] it was 131 µM; in data set [9] it was 524 µM; in data set [10] it was 65.5 µM; in data set [11], 131 µM. Also, the minimum inhibitory concentration (MIC) in data set [12], in data set [13], in data set [15] and in [16] was 262 µM throughout. Also, the minimal bactericidal concentration (MBC) came to 131 µM in data set [3]; 65.5 µM in data set [6]; 262 µM in [8]; 131 µM in data set [18]; 32.7 µM in data set [20]. The IC50 in data set [4] is 0.23 ± 0.06 µM; in data set [5] it was 0.23 to 2.1 µM; in data set [14], 2.1 ± 0.5 µM; in data set [17] it was 47.8 ± 3.5 µM; in [19] it was 0.45 ± 0.08 µM.
For the compound `C[n+]1cc2c(c3ccccc31)Nc1ccc(OCc3cn(-c4ccc(Cl)cc4)nn3)cc1S2` [2m, 5-Methyl-9-(1-(4-chlorophenyl)-1H-1,2,3-triazol-4-yl)methoxy-12H-quino [3,4-b][1,4]benzothiazinium chloride], the minimal inhibitory concentration (MIC) is 65.5 µM in [1]; 8.19 µM in data set [2]; 65.5 µM in [7]; over 524 µM in [9]; 16.3 µM in [10]; 32.7 µM in data set [11]. Also, the MIC was 524 µM in data set [12], 131 µM in [13], 524 µM in [15] and 131 µM in data set [16]. Also, the minimum bactericidal concentration (MBC) in data set [3] turned out to be 32.7 µM; in data set [6], 16.3 µM; in [8], 131 µM; in [22], 524 µM; in [18] it was 65.5 µM; in data set [23], 131 µM. Besides, the MBC in data set [20] was 8.19 µM. Moreover, the IC50 in [4] is 23.4 ± 1.5 µM; in [14], 8.9 ± 0.9 µM; in [17], over 100 µM; in data set [19], 16.8 ± 1.2 µM. The “Conc.: lowest multiple of MBC with at least 70% inhibition of respiratory activity” value in [21] (MTT) is on record as 1× MIC (1× MBC). In addition, the “Conc.: lowest multiple of MIC with at least 70% inhibition of respiratory activity” value in data set [21] (MTT) was 1× MIC (1× MBC). In [21] (Mycobacterium smegmatis), the “viability of M. smegmatis at MIC value” was “less than 70%”. Also, the “M. smegmatis Respiration Inhibition” value in data set [21] (at the concentration (lowest multiple of MIC with at least 70% inhibition)) is listed as 87.1%.
For `CC1(C)S[C@@H]2[C@H](NC(=O)[C@H](N)c3ccccc3)C(=O)N2[C@H]1C(=O)O` [AMP, ampicillin, reference compound], the minimum inhibitory concentration (MIC) was 2.81 µM (≈ 0.982 µg/mL) in data set [1]; 5.72 µM (≈ 2 µg/mL) in data set [7]; 45.8 µM (≈ 16 µg/mL) in [11]; over 45.8 µM in [13]; over 45.8 µM in [16]. The MBC is 45.8 µM (≈ 16 µg/mL) in data set [3]; 2.81 µM (≈ 0.982 µg/mL) in the data set with Enterococcus faecalis; over 45.8 µM in [8]; 5.72 µM (≈ 2 µg/mL) in data set [18]; over 45.8 µM in data set [23].
For `CN[C@H](CC(C)C)C(=O)N[C@H]1C(=O)N[C@@H](CC(N)=O)C(=O)N[C@H]2C(=O)N[C@H]3C(=O)N[C@H](C(=O)N[C@H](C(=O)O)c4cc(O)cc(O)c4-c4cc3ccc4O)[C@H](O)c3ccc(c(Cl)c3)Oc3cc2cc(c3O[C@@H]2O[C@H](CO)[C@@H](O)[C@H](O)[C@H]2O[C@H]2C[C@](C)(N)[C@H](O)[C@H](C)O2)Oc2ccc(cc2Cl)[C@H]1O` [vancomycin], in data set [24], the MIC of vancomycin is 2 µg/mL.
